Assay results taken from publication PMC11582173, “Synthesis, cytotoxicity, anti-inflammatory, anti-metastatic and anti-oxidant activities of novel chalcones incorporating 2-phenoxy-N-arylacetamide and thiophene moieties: induction of apoptosis in MCF7 and HEP2 cells” (Naunyn-Schmiedeberg's Archives of Pharmacology, 2024).

Tested on: AKT1 gene
Test: Real-time PCR, AKT1 gene expression
Type: cell-based, human
Conditions: relative to untreated control (1)
Method: The expression level of the following six genes (Ki-67, Survivin, Interleukin-1 beta (IL-1B), Interleukin-6 (IL-6), Cyclooxygenase-2 (COX-2) and protein kinase B (AKT1)) was determined in MCF7 and HEP2 treated with the IC50 of compound 5c. The untreated cells were used as a negative control for comparison purposes. […] Ki-67 is a popular proliferation marker for human tumor cells. […] Survivin is an inhibitor of apoptotic protein (IAP) family member, which is essential for cell division. The lowering of the expression of survivin inhibited tumor development, triggered apoptosis, and made tumor cells more susceptible to radiation and chemotherapy (Albadari and Li [2023]). […] IL-1B is a pleiotropic mediator of inflammation, which is produced in response to a variety of stressors (Aarreberg et al. [2019]). […] IL-6 is a pro-inflammatory cytokine that plays a significant role in the proliferation and differentiation of human cells. It promotes the production of numerous proteins involved in acute inflammation (Uciechowski and Dempke [2020]). […]
The expression level of the following six genes (Ki-67, survivin, AKT1, IL-6, COX2, and IL-1B) was examined using real-time polymerase chain reaction (qPCR) (Mohamed et al. [2023a]). […] The cycle threshold (Ct) was determined automatically. […]

Molecule `COc1ccc(NC(=O)COc2ccc(C=CC(=O)c3cccs3)cc2)cc1` [Compound 5c, N-(4-Methoxyphenyl)-2-(4-(3-oxo-3-(thiophen-2-yl)prop-1-en-1-yl)phenoxy)acetamide] has an AKT1 expression folding (HEP2 cells treated with IC50 of 5c) of 0.381±0.011 fold and an AKT1 expression folding (MCF7 cells treated with IC50 of 5c) of 0.402±0.068 fold.
